We go through eleven compounds from ChEMBL document CHEMBL1201862, “PubChem BioAssay data set” (2004).

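Five concentrations, 48 hours, 96-well plates. GI50 is the concentration that inhibits growth by half.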 Active and inactive are the calls of the source. Rule as the data show it: active = GI50 up to about 1.1 µM and inactive = higher. A value given as a limit tells only on which side of the number the result lay.

Test systems include 786-0; BT-549; DU-145; HCT-116; HCT-15; K562; MDA-N; NCI-H226; OVCAR-4; OVCAR-8; PC-3; SF-268; SF-539; SK-MEL-28; SK-MEL-5; SNB-19; UACC-257; NCI/ADR-RES; SK-OV-3; HOP-92.
What all share (experiment): growth of human tumour cells (NCI), 48 h

Consider `CC(=O)OCC1OC(n2c(C)c(C)cc(C#N)c2=S)C(OC(C)=O)C(OC(C)=O)C1OC(C)=O` (stereo not drawn), for which the GI50 is > 100 µM (inactive) with 786-0; > 100 µM (inactive) in the test with BT-549; > 100 µM (inactive) in the test with DU-145; > 100 µM (inactive) in the test on HCT-116; over 100 µM with HCT-15; > 100 µM (inactive) in the test on K562. Also, the GI50 was > 100 µM (inactive) in the test with MDA-N; > 100 µM (inactive) in the test on NCI-H226; > 100 µM (inactive) with OVCAR-4; > 100 µM (inactive) in the test with OVCAR-8; > 100 µM (inactive) in the test on PC-3; 60.5 µM (inactive) in the test on SF-268. The GI50 in the test with SF-539, in the test on SK-MEL-28, with SK-MEL-5, in the test with SNB-19 and with UACC-257 was > 100 µM (inactive) in each case.

In the case of `NC(=O)c1nnc2cc(F)c(F)cc2c1N`, the GI50 is 32.4 µM (inactive) in the test on 786-0; 15.7 µM (inactive) with BT-549; 74.3 µM (inactive) in the test on DU-145; 72.1 µM (inactive) with HCT-116; over 100 µM in the test with HCT-15; > 100 µM (inactive) with K562. In addition, the GI50 in the test with MDA-N was > 100 µM (inactive); with NCI-H226 it was 11.9 µM (inactive); in the test with NCI/ADR-RES it was 27.6 µM (inactive); in the test with OVCAR-4 it was > 100 µM (inactive); in the test on OVCAR-8, 37.3 µM (inactive); with PC-3 it was 95.1 µM (inactive). For the same compound, the GI50 in the test on SF-268 was 21.6 µM (inactive); in the test with SF-539 it was 36.4 µM (inactive); in the test with SK-MEL-5, 87.1 µM (inactive); in the test on SK-OV-3, 25.5 µM (inactive); with SNB-19 it was 30.8 µM (inactive); with UACC-257 it was > 100 µM (inactive).

Turning to `Cc1ccc(S(=O)(=O)N2CCN3C(=O)c4ccccc4C32c2ccc(F)cc2)cc1` (stereo not drawn), the GI50 in the test on 786-0 is > 100 µM (inactive); in the test with BT-549 it was > 100 µM (inactive); in the test with DU-145, 78.7 µM (inactive); with HCT-116 it was 42.1 µM (inactive); in the test on HCT-15, 80.9 µM; in the test with K562, 42.4 µM (inactive). The GI50 in the test with MDA-N was 27.5 µM (inactive); in the test with NCI-H226 it was 64 µM (inactive); in the test on NCI/ADR-RES, 52 µM (inactive); in the test with OVCAR-4, > 100 µM (inactive); in the test with OVCAR-8 it was > 100 µM (inactive); in the test on PC-3 it was 32 µM (inactive). For the same compound, the GI50 was 98.4 µM (inactive) with SF-268; 71 µM (inactive) in the test on SK-MEL-28; 17.7 µM (inactive) in the test with SK-MEL-5; > 100 µM (inactive) in the test with SK-OV-3; > 100 µM (inactive) in the test on SNB-19; 56 µM (inactive) with UACC-257.

With `C[C@H](C(O)CC(=O)C(C)(C)O)[C@H]1CC[C@@]2(C)[C@@H]3CC[C@H]4C(C)(C)[C@@H](OC5OC(COC6OC(CO)C(O)C(O)C6O)C(O)C(O)C5O)CC[C@]4(C)C3=CC[C@]12C` (stereo partly drawn), the GI50 with 786-0 was > 100 µM (inactive); in the test with BT-549, > 100 µM (inactive); in the test on DU-145, > 100 µM (inactive); in the test on HCT-116, > 100 µM (inactive); in the test with HCT-15, over 100 µM; with HOP-92 it was > 100 µM (inactive). Also, the GI50 in the test on K562, in the test with MDA-N, with NCI-H226, in the test with OVCAR-4, in the test with OVCAR-8 and in the test with PC-3 was > 100 µM (inactive) in each case. The GI50 in the test on SF-268, with SF-539, with SK-MEL-28, with SK-MEL-5, with SK-OV-3 and in the test on SNB-19 was > 100 µM (inactive) in each case. In the test on UACC-257, the GI50 was > 100 µM (inactive).

As to `Cn1c(=N)n[n+]([O-])c2ccccc21`, the GI50 in the test with 786-0 is 4.24 µM (inactive); with BT-549 it was 1.87 µM (inactive); in the test on DU-145, 2.26 µM (inactive); in the test on HCT-116, 3.78 µM (inactive); with K562 it was 1.59 µM (inactive); in the test on MDA-N it was 1.9 µM (inactive). Moreover, the GI50 was 6.98 µM (inactive) with NCI-H226; 2.48 µM (inactive) in the test with OVCAR-4; 13 µM (inactive) in the test with OVCAR-8; 5.6 µM (inactive) in the test with PC-3; 1.99 µM (inactive) in the test with SF-539; 1.83 µM (inactive) with SK-MEL-5. In addition, the GI50 in the test on SK-OV-3 is 25.3 µM (inactive); with UACC-257 it was 2.71 µM (inactive).

On to `OC(c1ccccc1)(c1ccccc1)c1nccc2ccccc12`, for which the GI50 with 786-0 was 55 µM (inactive); with BT-549, 14.3 µM (inactive); in the test with DU-145, 41.7 µM (inactive); with HCT-116 it was 27.9 µM (inactive); in the test on HCT-15, 37.3 µM; in the test with K562, > 10 µM (inactive). Besides, the GI50 in the test on MDA-N is 30.1 µM (inactive); in the test with NCI/ADR-RES, 34.6 µM (inactive); with OVCAR-4, 31.6 µM (inactive); in the test on OVCAR-8, 37.8 µM (inactive); with PC-3, 22.2 µM (inactive); with SF-268 it was 44.2 µM (inactive). Moreover, the GI50 is 22.6 µM (inactive) with SK-MEL-28; 14.1 µM (inactive) with SK-MEL-5; 22.5 µM (inactive) in the test with SK-OV-3; 27.9 µM (inactive) in the test on SNB-19; 31 µM (inactive) in the test on UACC-257.

As for `CC(=O)C(CN1C(=O)c2ccccc2C1=O)C(C)=O`, the GI50 with 786-0 is > 100 µM (inactive); in the test on BT-549, > 100 µM (inactive); in the test on DU-145 it was > 100 µM (inactive); in the test on HCT-116, > 100 µM (inactive); in the test with HCT-15, over 100 µM; in the test on HOP-92, > 100 µM (inactive). Moreover, the GI50 in the test on K562, with MDA-N, with NCI-H226, with OVCAR-4, in the test with OVCAR-8 and in the test on PC-3 was > 100 µM (inactive) in each case. Moreover, the GI50 in the test on SF-268, in the test on SF-539, with SK-MEL-28, in the test with SK-MEL-5, in the test with SK-OV-3 and with SNB-19 was > 100 µM (inactive) throughout. Moreover, the GI50 in the test on UACC-257 was > 100 µM (inactive).

As for `[N-]=[N+]=CC(=O)CCC(=O)N(c1ccccc1)c1ccccc1`, the GI50 in the test with 786-0 was > 10 µM (inactive); with BT-549, > 10 µM (inactive); with DU-145 it was > 10 µM (inactive); with HCT-116, > 10 µM (inactive); in the test with HCT-15 it was over 10 µM; in the test on HOP-92, > 10 µM (inactive). The GI50 with K562, with MDA-N, with NCI-H226, with OVCAR-8, with PC-3 and in the test with SF-268 was > 10 µM (inactive) throughout. Moreover, the GI50 in the test on SF-539, in the test with SK-MEL-28, with SK-MEL-5, in the test on SK-OV-3, in the test with SNB-19 and with UACC-257 was > 10 µM (inactive) throughout.

As for `O=C(CCCN1CCC2(CC1)CC(=O)N(N1CCOCC1)C2=O)c1ccccc1`, the GI50 in the test on 786-0 was > 100 µM (inactive); in the test with BT-549, 14.6 µM (inactive); in the test on DU-145 it was > 100 µM (inactive); with HCT-116, > 100 µM (inactive); with HCT-15, over 100 µM; with K562, > 100 µM (inactive). Besides, the GI50 in the test with MDA-N, in the test on NCI-H226, in the test on NCI/ADR-RES, with OVCAR-8, with PC-3 and with SF-268 was > 100 µM (inactive) in each case. Moreover, the GI50 with SF-539, in the test on SK-MEL-28, in the test on SK-MEL-5, in the test on SK-OV-3, with SNB-19 and with UACC-257 was > 100 µM (inactive) in each case.

As to `C/C=C1\CN2CCC34c5ccccc5N(C)C35OCC4(C(=O)OC)C1CC25` (stereo not drawn), the GI50 is 76.2 µM (inactive) with 786-0; 34.3 µM (inactive) with BT-549; 74.6 µM (inactive) in the test with DU-145; 36.6 µM (inactive) with HCT-116; 23.1 µM with HCT-15; 28.6 µM (inactive) with HOP-92. Besides, the GI50 in the test on K562 is 48.9 µM (inactive); in the test on MDA-N it was 46.5 µM (inactive); with OVCAR-4, 51.2 µM (inactive); in the test with PC-3 it was 27.9 µM (inactive); in the test on SF-268 it was > 100 µM (inactive); in the test with SF-539, 83 µM (inactive). The GI50 with SK-MEL-28 was 27.7 µM (inactive); in the test on SK-MEL-5, 18.4 µM (inactive); with SK-OV-3, > 100 µM (inactive); in the test with SNB-19, 59.8 µM (inactive); in the test with UACC-257 it was 32.4 µM (inactive).

In the case of `O=C(O)Cc1cccc2c(=O)c3cccc([N+](=O)[O-])c3oc12`, the GI50 with 786-0 is > 100 µM (inactive); with BT-549, > 100 µM (inactive); with DU-145, > 100 µM (inactive); with HCT-116 it was > 100 µM (inactive); with HCT-15, over 100 µM; with K562 it was > 100 µM (inactive). Also, the GI50 in the test on MDA-N, in the test with NCI-H226, in the test on OVCAR-4, in the test on OVCAR-8, with PC-3 and in the test on SF-268 was > 100 µM (inactive) throughout. Besides, the GI50 in the test with SF-539, in the test on SK-MEL-28, in the test with SK-MEL-5, in the test on SK-OV-3, in the test on SNB-19 and in the test with UACC-257 was > 100 µM (inactive) each time.
